# Assay results reported in US8138179B2, “Spiro-imidazo compounds” (Novartis AG, priority 2006, dated 2012).
# What was measured:
# plasma aldosterone = experiment: In vivo suppression of plasma aldosterone levels in ACTH-stimulated rats; parameters: species or system Wistar rats; conditions: 4 mg/kg p.o.; plasma level 2 h after administration relative to 1 h prior to administration
# Experimental: (§1) The aldosterone- and corticosterone-suppressing activity of herein described compounds may be assessed with the following in vivo protocol.
# (§2) Adult male Wistar rats weighing between 250 and 350 grams are kept under the usual 12 hour light and 12 hour dark conditions at a temperature of 23° C.±2° C. On the first day of the experiment, the animals receive a subcutaneous injection of a depot ACTH product in a dose of 1.0 mg/kg weight (SYNACTHEN-Depot, Novartis, Basel, CH) 16 hours prior to the administration of a test compound. […] An alternative method to stimulate aldosterone secretion consists in subjecting rats to a low salt diet for 48 hours and applying the diuretic furosemide at 10 mg/kg by subcutaneous or intraperitoneal administration 16 hours, respectively 2 hours prior to the start of the experiment. […] The aldosterone and corticosterone concentrations of the plasma samples can be determined with a radioimmunoassay as described above for the in vitro test systems.
# (§3) The selective suppression of plasma steroid levels as for instance aldosterone in comparison to corticosterone may serve as a measure for in vivo bioavailability and pharmacodynamic enzyme inhibitory activity of the herein described compounds. The evaluation of the data may occur relative to the application of vehicle or quantitatively by determination of the area under the curve (AUC). […]
# plasma corticosterone = experiment: In vivo suppression of plasma corticosterone levels in ACTH-stimulated rats; parameters: species or system Wistar rats; conditions: 4 mg/kg p.o.; plasma level 2 h after administration relative to 1 h prior to administration
# Experimental: as §1, §2, §3
structure (smiles),measurement,setting,value
"N#Cc1ccc2c(c1)C1(CCC2)OCCn2cncc21 (centres unmarked) [Example 10, spiro-[(5,6-Dihydro-8H-imidazo[5,1-c][1,4]oxazine)-8,8′-(5′,6′,7′,8′-tetrahydronaphthalene-2′-carbonitrile)]]",Aldosterone levels (% change at 2 h),plasma aldosterone,−81.7%
same,Corticosterone levels (% change at 2 h),plasma corticosterone,−14.5%
